The assay deals with colitis resulted by administration of an aqueous solution of dextran sulfate in rats. Nature of the assay: Dextran sulfate-induced colitis in rats (Test Example 1). Type of assay: in vivo, rat. Conditions: F 334 rats, 3% dextran sulfate in drinking water for 5 days, 5 mg/kg orally twice daily. How it is done: Rats (males; eight weeks age) of an F 334 strain (Japan SLC) were allowed free access to a 3% aqueous solution of dextran sulfate for five days and, after that, they were allowed free access to tap water for one day. The test substance was orally administered twice daily at the start of drinking of a 3% aqueous solution of dextran sulfate. After six days from the initiation of the administration, the large intestine was excised and its length was measured. With regard to the symptom score, (1) stool consistency, (2) fecal blood and (3) degree of body weight reduction from the previous day were evaluated in five stages as shown in the following Table 1 and a mean value thereof was calculated. As to the test substance, the compound A (5 mg/kg) was used. The test substance was administered by suspending in a 0.5% aqueous solution of methyl cellulose. A 0.5% aqueous solution of methyl cellulose was administered to the control group. Ten rats per group were used. [table] With regard to shortening of the large intestine, significant difference from the control group was tested by a t-test (*: p<0.05). With regard to the symptom score of colitis, significant difference from the control group was tested by a t-test (##: p<0.01).

On to `CC(C)N(CCCCOCC(=O)NS(C)(=O)=O)c1cnc(-c2ccccc2)c(-c2ccccc2)n1` [compound A, 2-{4-[N-(5,6-diphenylpyrazin-2-yl)-N-isopropylamino]butyl-oxy}-N-(methylsulfonyl)acetamide], for which the “shortening of large intestine (length of the large intestine)” value (large intestine excised after six days, t-test vs control p<0.05, FIG. 1) is given as “significantly suppressed”. The “symptom score of colitis (stool consistency, fecal blood, body weight reduction)” value (t-test vs control p<0.01, FIG. 2) is reported as “significantly suppressed”.
